According to the NIST ThermoML archive (doi:10.1021/je060271a):
Numbers after ± are expanded uncertainties.

Conditions: 343.15 K, Liquid, Vibrating tube method

CCCCCCC(=O)OCC(COC(=O)CCCCCC)(COC(=O)CCCCCC)COC(=O)CCCCCC [pentaerythritol tetraheptanoate]
Conditions	mass density [kg/m3]
5115 kPa	944.4 ± 1.2
5119.1 kPa	944.5 ± 1.2
5124.1 kPa	944.5 ± 1.2
5128.3 kPa	944.5 ± 1.2
5132.4 kPa	944.4 ± 1.2
5136.3 kPa	944.4 ± 1.2
5141.1 kPa	944.4 ± 1.2
5145.3 kPa	944.4 ± 1.2
5149.6 kPa	944.5 ± 1.2
5153.6 kPa	944.5 ± 1.2
5158.6 kPa	944.5 ± 1.2
5162.9 kPa	944.5 ± 1.2
5167.1 kPa	944.5 ± 1.2
5172.1 kPa	944.5 ± 1.2
5176 kPa	944.4 ± 1.2
5180 kPa	944.5 ± 1.2
5184.4 kPa	944.4 ± 1.2
5189.9 kPa	944.6 ± 1.2
5193.9 kPa	944.4 ± 1.2
5198 kPa	944.4 ± 1.2
5202.4 kPa	944.7 ± 1.2
5206.5 kPa	944.5 ± 1.2
5211.7 kPa	944.6 ± 1.2
5216 kPa	944.6 ± 1.2
5220.2 kPa	944.5 ± 1.2
5225 kPa	944.6 ± 1.2
5229.2 kPa	944.5 ± 1.2
5233.5 kPa	944.5 ± 1.2
5237.6 kPa	944.5 ± 1.2
5243.2 kPa	944.5 ± 1.2
5247.3 kPa	944.7 ± 1.2
5251.8 kPa	944.5 ± 1.2
5256 kPa	944.7 ± 1.2
5260.8 kPa	944.6 ± 1.2
5265 kPa	944.6 ± 1.2
5269.7 kPa	944.6 ± 1.2
5273.8 kPa	944.5 ± 1.2
5277.8 kPa	944.7 ± 1.2
5281.4 kPa	944.6 ± 1.2
5285 kPa	944.6 ± 1.2
5291.6 kPa	944.7 ± 1.2
5300.3 kPa	944.5 ± 1.2
5308.9 kPa	944.7 ± 1.2
5319.5 kPa	944.7 ± 1.2
5328.6 kPa	944.7 ± 1.2
5337.3 kPa	944.6 ± 1.2
5348.2 kPa	944.6 ± 1.2
5357.2 kPa	944.7 ± 1.2
5366.4 kPa	944.6 ± 1.2
5375.7 kPa	944.6 ± 1.2
5386.4 kPa	944.6 ± 1.2
5395.4 kPa	944.7 ± 1.2
5406.3 kPa	944.9 ± 1.2
5415.5 kPa	944.8 ± 1.2
5425 kPa	944.8 ± 1.2
5434.7 kPa	944.7 ± 1.2
5444 kPa	944.7 ± 1.2
5453.7 kPa	944.7 ± 1.2
5464.8 kPa	944.8 ± 1.2
5473.8 kPa	944.7 ± 1.2
5485 kPa	945 ± 1.2
5494.5 kPa	944.7 ± 1.2
5504.2 kPa	944.8 ± 1.2
5513.7 kPa	944.8 ± 1.2
5525.5 kPa	944.8 ± 1.2
5535 kPa	944.7 ± 1.2
5544.7 kPa	944.8 ± 1.2
5554.7 kPa	944.8 ± 1.2
5568 kPa	944.8 ± 1.2
5576.2 kPa	944.7 ± 1.2
5587.6 kPa	944.8 ± 1.2
5597.4 kPa	944.8 ± 1.2
5607.3 kPa	944.8 ± 1.2
5619.2 kPa	944.8 ± 1.2
5629.1 kPa	944.8 ± 1.2
5639.1 kPa	944.9 ± 1.2
5650.9 kPa	944.9 ± 1.2
5660.8 kPa	944.8 ± 1.2
5671.1 kPa	944.8 ± 1.2
5681.5 kPa	944.7 ± 1.2
5694 kPa	944.9 ± 1.2
5705.1 kPa	945 ± 1.2
5715.3 kPa	944.9 ± 1.2
5725.9 kPa	945 ± 1.2
5737.8 kPa	944.9 ± 1.2
5748.4 kPa	944.8 ± 1.2
5758.7 kPa	945 ± 1.2
5771 kPa	944.9 ± 1.2
5781.7 kPa	944.9 ± 1.2
5791.9 kPa	944.9 ± 1.2
5802.8 kPa	944.9 ± 1.2
5815.5 kPa	945.1 ± 1.2
5826.5 kPa	945 ± 1.2
5837.6 kPa	945.1 ± 1.2
5848.7 kPa	945 ± 1.2
5862 kPa	945 ± 1.2
5872.5 kPa	944.9 ± 1.2
5883.3 kPa	945 ± 1.2
5894.5 kPa	945.1 ± 1.2
5907.6 kPa	945.1 ± 1.2
5918.9 kPa	945 ± 1.2
5930.1 kPa	945.1 ± 1.2
5941.2 kPa	945 ± 1.2
5954.7 kPa	945.1 ± 1.2
5965.7 kPa	945.3 ± 1.2
5977 kPa	945 ± 1.2
5990.6 kPa	945.1 ± 1.2
6002 kPa	945 ± 1.2
6013.3 kPa	945.2 ± 1.2
6026.9 kPa	945.1 ± 1.2
6038.5 kPa	945.2 ± 1.2
6050.1 kPa	945.1 ± 1.2
